From patent publication US8697701B2, “Solid germicidal composition and disinfection method” (Ueno Fine Chemicals Industry, Ltd., priority 2012, dated 2014)

What was measured:
[1] = cited from earlier work
[2] = test system: Serratia marcescens (bacterium 2 isolated from a food factory); test: Test for inhibition of drug resistance development (repeated MIC, broth microdilution); assay type: cell-based; conditions: sample bacteria (iii) and (iv), eight MIC rounds, as compared to DDAC
Description: According to the standard method (broth microdilution method) of Japanese Society of Chemotherapy, minimal inhibitory concentration (MIC) was continuously measured. The compositions shown in Table 7 were diluted with sterile water to obtain drug solutions with a concentration of the composition of 0.007 to 1.792% by weight, and a nutrient broth medium adjusted to a concentration twice as high as the specified concentration (manufactured by Eiken Chemical Co., Ltd., normal bouillon medium ‘Eiken’ E-MC35) was added thereto in an amount equal to the drug solution. The obtained mixture was stirred and then dispensed to a microtiter plate (96 well) in an amount of 150 μl/well. […] The diluted culture was then seeded in an amount of 7.5 μl/well to the microtiter plate containing the medium prepared as described above. The plate was incubated in a constant temperature oven at 30° C. for 48 hours, the growth of the bacterium was checked by visual inspection, and MIC was determined. […] Using the diluted culture, MIC was determined again in the same manner as described above. MIC was determined eight times in total by repeating the above procedure, and changes in MIC were confirmed.
Sample Bacterium (iii): Serratia marcescens (Bacterium 2 Isolated from a Food Factory)

[3] = test system: Serratia marcescens (bacterium 1 isolated from a food factory); conditions: preliminary test, sensitization time 5 minutes
Description: The following sample bacterium (i) isolated from a food factory was cultured in a BHI bouillon medium at 30° C. for 24 hours. A 0.03 ml of a liquid obtained by diluting the cultured bacterium with a physiological saline solution to the concentration on the order of 10^6 cfu/ml was mixed with respective 3 ml of aqueous solutions, each of which was obtained by diluting an aqueous solution of the above solid germicidal composition (1.0% by weight) with sterile water so that the concentration of the solid germicidal composition would be 0.01, 0.02 and 0.04% by weight, respectively. The obtained mixture was then left at 25° C. for 5 minutes. After sensitization time elapsed, stirring was carried out again. One platinum loop of each mixture was taken and inoculated in 10 ml of a BHI bouillon medium. The medium was incubated at 30° C. for 48 hours. A BHI bouillon medium without inoculation of the bacterium was used as a reference, and turbidity of the medium was compared with the reference by visual inspection to determine the germicidal effect of the aqueous solution of the solid germicidal composition on the bacterium.
Sample Bacterium (i): Serratia marcescens (Bacterium 1 Isolated from a Food Factory)

Row | Compound | solubility in water at 20° C. [1] | also measured
1 | O=C(O)/C=C/C(=O)O [Fumaric acid] | (solubility 0.51%) | 
2 | O=C(O)CC(O)C(=O)O (stereo not shown) [Malic acid] | (solubility 55.8%) | 
3 | CCCCCCCCCC[n+]1ccn(CCCCCCCCCCn2cc[n+](CCCCCCCCCC)c2C)c1C.[Cl-].[Cl-] [1,10-di(3-decyl-2-methylimidazolium)decane dichloride] |  | development of drug-resistant microorganisms [2]: hardly developed
4 | CCCCCCCCCC[N+](C)(C)CCCCCCCCCC.[Cl-] [didecyl dimethyl ammonium chloride] |  | maximum concentration up to which proliferation of sample bacterium (i) was not inhibited [3]: > 80 ppm
